Values quoted from earlier work as cited in patent US20160002278A1, “Pharmaceutical Compositions for Rectal Administration” (CIPLA LIMITED, priority 2013, published 2016).

Legend:
[1] = animal study, distributed to other vital organs such as lungs
[2] = oral administration

- bioavailability (after oral administration): 1%
- absorption from the gastrointestinal tract (following oral (PO) administration): minimally absorbed
Compound: CCc1c(Cl)c(O)c(Cl)c(O)c1C(=O)O[C@H]1[C@H](O)[C@H](OC)[C@H](OC/C2=C\C=C\C[C@H](O)/C(C)=C/[C@H](CC)[C@@H](O[C@@H]3OC(C)(C)[C@@H](OC(=O)C(C)C)[C@H](O)[C@@H]3O)/C(C)=C/C(C)=C/C[C@@H]([C@@H](C)O)OC2=O)O[C@@H]1C [Fidaxomicin]
- organ findings after oral administration [1]: dark red discoloration of the lungs and lymph nodes
- adverse effects [2]: hives, difficulty in breathing, swelling of face, lips, tongue or throat
